Measured values: patent EP4008716A1, “NOVEL INHIBITORS OF INSULIN-LIKE GROWTH FACTOR 2 MRNA BINDING PROTEINS” (Martin-Luther-Universität Halle-Wittenberg, priority 2020, dated 2022)

These compounds were tested on ES-2 cells (assay: Cytotoxicity / cell vitality by cell confluency (IncuCyte live-cell imaging) relative to DMSO controls). Conditions: Homo sapiens, determined in 11 analyses with three technical replicates each.
Assay type: cell-based

Row | Compound | EC50 [µM]
1 | NC(=O)c1ccccc1N=Cc1ccc(Br)s1 [BTYNB, 2-{[(5-bromo-2-thienyl)methylene]amino}benzamide] | 5.9

These compounds were tested on ES-2 cells in the same assay as above. Conditions: Homo sapiens, ovarian cancer-derived ES-2 cells, 72 h post compound application, eleven concentrations, two-fold dilution from 20µM, mean of three independent studies.
Assay type: cell-based
Protocol: All novel inhibitors were explored for their cytotoxic activity in ovarian cancer-derived ES-2 cells. In these cell models, BTYNB was prior shown to impair cell vitality and metastatic potential in vitro and cancer mouse models (15). For the respective studies ES-2 cells were plated and exposed to increasing concentration of the compounds and cell vitality was monitored by determining cell confluency relative to DMSO controls using an IncuCyte cell imaging system, essentially as described recently (15). For determining the impact of the developed compounds on ES-2 cell vitality, cells were cultured in Dulbecco's modified eagle medium (DMEM) containing phenol red, 4.5 g/L D-Glucose, 0.11 g/L sodium pyruvate, 10% (v/v) fetal bovine serum (FBS) and 2 mM GlutaMAX (Sigma-Aldrich, Darmstadt, Germany). Cells were maintained in under humidified conditions at 37 °C, 5% CO2. For cytotoxicity studies, cells were seeded in 96-well flat-bottom plates at 2 x 10^3 cells per well in 100 µL supplemented DMEM and incubated for 24 h prior to addition of BTYNB derivatives. Compounds were analyzed at eleven concentrations using a two-fold dilution with an initial compound concentration of 20µM in DMSO (solvent). Cells treated with 0.002% (v/v) DMSO served as controls. Cytotoxicity of compound concentrations was determined 72 h post compound application by monitoring cell confluency using an IncuCyte Systems for Live-Cell Imaging. Cell confluency was determined with the IncuCyte 2019B Rev2 software. Confluency of controls was set to 1 (100%) and altered confluency at distinct compound concentrations was calculated as relative confluency. The mean relative confluency at compound concentrations was analyzed in three independent studies with three technical replicates each. The mean values of three analyses were plotted against the logarithmic concentration of compounds and fitted by the non-linear module [Sigmoidal, 4PL, X is log(concentration)] using GraphPad Prism V9(86) for macOS. In Table 1 compounds with EC50 values, indicating the potency of the 58 developed compounds to impair cell vitality, are listed. […] Table 2: EC-values of the synthesized compounds of formula (I)

Row | Compound | EC50 [µM]
2 | NC(=O)c1ccccc1NC(=O)CN1CCN(Cc2c(Cl)cccc2Cl)CC1 [compound 22, 2-({[4-(2,6-Dichlorobenzyl)-1-piperazinyl]acetyl}amino)benzamide] | 6.46
3 | NC(=O)c1ccccc1NC(=O)c1ccc(Cl)s1 [compound 13, N-(2-carbamoylphenyl)-5-chlorothiophene-2-carboxamide] | 2.3
4 | CC(C)c1cc(C(N)=O)c(NC(=O)Cc2ccc(Cl)c(Cl)c2)s1 [compound 42, 2-{[(3,4-Dichlorophenyl)acetyl]amino}-5-isopropyl-3-thiophenecarboxamide] | 2.45
5 | CC(Sc1nnc(NC(=O)c2ccccc2)s1)c1nc2ccccc2c(=O)[nH]1 (centres unmarked) [compound 6, N-(5-{[1-(4-oxo-3,4-dihydro-2-quinazolinyl)ethyl]thio}-1,3,4-thiadiazol-2-yl)benzamide] | 4.05
6 | Cc1ccc(C(=O)Nc2sc(Cc3ccccc3)cc2C(N)=O)o1 [compound 35, N-[3-(Aminocarbonyl)-5-benzyl-2-thienyl]-5-methyl-2-furamide] | 1.34
7 | COc1ccc(C(=O)Nc2ccccc2C(N)=O)cc1Cl [compound 16, N-[2-(aminocarbonyl)phenyl]-3-chloro-4-methoxybenzamide] | 5.84
8 | NC(=O)c1ccccc1NC(=O)CN1CCN(Cc2ccc(Cl)c(Cl)c2)CC1 [compound 20, 2-({[4-(3,4-Dichlorobenzyl)-1-piperazinyl]acetyl}amino)benzamide] | 1.22
9 | CCc1c(C(=O)Nc2sc(Cc3ccccc3)cc2C(N)=O)csc1C [compound 33, 5-Benzyl-2-{[(4-ethyl-5-methyl-3-thienyl)carbonyl]amino}-3-thiophenecarboxamide] | 5.06
10 | NC(=O)c1ccsc1NC(=O)c1cccs1 [compound 10, N-[3-(aminocarbonyl)-2-thienyl]-2-thiophenecarboxamide] | 3.23
11 | NC(=O)c1ccccc1NC(=O)CN1CCN(Cc2ccc(F)cc2Cl)CC1 [compound 25, 2-({[4-(2-Chloro-4-fluorobenzyl)-1-piperazinyl]acetyl}amino)benzamide] | 3.17
12 | CCc1cc(C(=O)Nc2sccc2C(N)=O)cs1 [compound 15, 2-{[(5-Ethyl-3-thienyl)carbonyl]amino}-3-thiophenecarboxamide] | 2.95
13 | NC(=O)c1cc(Cc2ccccc2)sc1NC(=O)c1cccs1 [compound 31, N-[3-(aminocarbonyl)-5-benzyl-2-thienyl]-2-thiophenecarboxamide] | 0.671
14 | COc1ccc(C(=O)Nc2sc(Cc3ccccc3)cc2C(N)=O)cc1COc1ccc(Cl)cc1 [compound 52, 5-Benzyl-2-{3-[(4-chlorophenoxy)methyl]-4-methoxybenzamido}thiophene-3-carboxamide] | 1.02
15 | NC(=O)c1ccccc1NC(=O)CN1CCN(Cc2ccc(Cl)cc2)CC1 [compound 23, 2-({[4-(4-Chlorobenzyl)-1-piperazinyl]acetyl}amino)benzamide] | 2.99
16 | NC(=O)c1cc(Cc2ccccc2)sc1NC(=O)c1cccc(COc2ccc(Cl)cc2Cl)c1 [compound 50, 5-Benzyl-2-{3-[(2,4-dichlorophenoxy)methyl]benzamido}thiophene-3-carboxamide] | 0.047
17 | Cc1ccc(C(=O)Nc2ccccc2C(N)=O)s1 [compound 2, N-[2-(aminocarbonyl)phenyl]-5-methyl-2-thiophenecarboxamide] | 2.06
18 | NC(=O)c1ccccc1OCC(=O)c1ccc(Br)cc1 [compound 19, 2-[2-(4-Bromophenyl)-2-oxoethoxy]benzamide] | 2.95
19 | NC(=O)c1cc(Cc2ccccc2)sc1NC(=O)Cc1cccs1 [compound 34, 5-Benzyl-2-[(2-thienylacetyl)amino]-3-thiophenecarboxamide] | 1.16
20 | COc1ccc(C(=O)Nc2sc(C(C)C)cc2C(N)=O)cc1COc1ccccc1Cl [compound 46, 2-({3-[(2-Chlorophenoxy)methyl]-4-methoxybenzoyl}amino)-5-isopropyl-3-thiophenecarboxamide] | 2.23
21 | NC(=O)c1cc(Cc2ccccc2)sc1NC(=O)c1ccc(COc2ccc(Br)cc2)cc1 [compound 43, 5-Benzyl-2-({4-[(4-bromophenoxy)methyl]benzoyl}amino)-3-thiophenecarboxamide] | 1.19
22 | NC(=O)c1ccccc1NC(=O)c1cc(Cl)cc(Cl)c1 [compound 18, N-[2-(aminocarbonyl)phenyl]-3,5-dichlorobenzamide] | 5.15
23 | NC(=O)c1ccccc1NC(=O)c1ccccc1 [compound 14, N-(2-carbamoylphenyl)benzamide] | 10.5
24 | COc1ccc(C(=O)Nc2sc(Cc3ccccc3)cc2C(N)=O)cc1COc1ccccc1Cl [compound 44, 5-Benzyl-2-({3-[(2-chlorophenoxy)methyl]-4-methoxybenzoyl}amino)-3-thiophenecarboxamide] | 0.439
25 | NC(=O)c1ccccc1NC(=O)CN1CCN(Cc2ccccc2Cl)CC1 [compound 24, 2-({[4-(2-Chlorobenzyl)-1-piperazinyl]acetyl}amino)benzamide] | 9.58
26 | COc1cc(-c2nc3ccccc3c(=O)[nH]2)ccc1OCc1ccccc1[N+](=O)[O-] [compound 3, 2-{3-Methoxy-4-[(2-nitrobenzyl)oxy]phenyl}-4(3H)-quinazolinone] | 0.476
